Laboratory results published in the NIST ThermoML archive (doi:10.1016/j.jct.2004.11.017).

Experiment: xn = mol fraction of the nth substance listed
Details: 101 kPa, Liquid

CC[S+]([O-])CC [diethyl sulfoxide] + O
mass density [kg/m3]
Details | 298.15 K | 303.15 K | 308.15 K | 313.15 K | 318.15 K | 323.15 K | 328.15 K | 333.15 K | 338.15 K | 343.15 K
x1 = 0.0997 | 1027.6 | 1024.2 | 1020.7 | 1017.1 | 1013.4 | 1009.6 | 1005.8 | 1001.8 | 997.8 | 993.7
x1 = 0.1996 | 1038.6 | 1034.2 | 1029.8 | 1025.4 | 1020.9 | 1016.3 | 1011.8 | 1005.9 | 1001.3 | 997.1
x1 = 0.2517 | 1038.4 | 1033.7 | 1029.6 | 1025 | 1020.5 | 1015.8 | 1011.2 | 1006.4 | 1001.7 | 996.9
x1 = 0.2978 | 1037.8 | 1033.3 | 1028.8 | 1024.2 | 1019.6 | 1015 | 1010.3 | 1005.6 | 1000.8 | 996
x1 = 0.3481 | 1035.8 | 1031.4 | 1026.8 | 1022.2 | 1017.6 | 1013 | 1008.3 | 1003.6 | 998.9 | 994.1
x1 = 0.3946 | 1034.7 | 1030.2 | 1025.7 | 1021.2 | 1016.6 | 1012 | 1007.3 | 1002.6 | 997.8 | 993
x1 = 0.4496 | 1031.6 | 1027.2 | 1022.7 | 1018.3 | 1013.8 | 1009.2 | 1004.5 | 999.9 | 995.2 | 990.5
x1 = 0.5053 | 1029.6 | 1025.1 | 1020.6 | 1016.2 | 1011.7 | 1007.1 | 1002.5 | 997.9 | 993.2 | 988.5
x1 = 0.5962 | 1026.4 | 1022.1 | 1017.6 | 1013.2 | 1008.7 | 1004.2 | 999.6 | 995 | 990.4 | 985.7
x1 = 0.6971 | 1021.9 | 1017.5 | 1013.1 | 1008.7 | 1004.3 | 999.8 | 995.3 | 990.8 | 986.2 | 981.7
x1 = 0.8061 | 1018.2 | 1013.9 | 1009.6 | 1005.2 | 1000.8 | 996.4 | 991.9 | 987.4 | 982.9 | 978.4
x1 = 0.8946 | 1015.3 | 1011 | 1006.7 | 1002.3 | 997.9 | 993.5 | 989.1 | 984.7 | 980.2 | 975.7
x1 = 1 | 1010.2 | 1005.8 | 1001.4 | 997 | 992.6 | 988.2 | 983.9 | 979.5 | 975.1 | 970.6
